Measured values: patent publication US12358911B2, “Heterocyclic comipound as CDK-HDAC dual pathway inhibitor” (Hangzhou Innogate Pharma Co., Ltd., priority 2018, dated 2025)

Columns and labels:
Assay type in all cases: biochemical
[1] = biological target: CDK6/CycD3 (Homo sapiens (Human), UniProt Q00534); assay: CDK6 kinase assay (Mobility Shift Assay); settings: 28° C.
Experimental: (§1) • Method 1: In vitro enzymatic activity of the CDK isoforms CDK2/CycA2, CDK4/CycD3 and CDK6/cycD3 were measured using Mobility Shift Assay that monitors phosphorylation ratio of FAM labelled peptide (Peptide 18 for CDK2/CycA2, Peptide 8 for CDK4/CycD3). CDK2/CycA2 and CDK6/CycD3 were assayed under buffer conditions in the presence of 50 mM HEPES (pH 7.5), 10 mM MgCl2, 0.0015% Brij-35 and 2 mM dithiothreitol; CDK4/CycD3 with buffer condition of 20 mM HEPES (pH 7.5), 10 mM MgCl2, 0.01% Triton X-100 and 2 mM dithiothreitol. Prepare compounds to 50× of the final desired highest inhibitor concentration by 100% DMSO and serial dilution in 3-fold for total of 10 concentrations. For each isoform, dosage of enzyme and substrate are CDK2/CycA2 12 nM, ATP Km 39 μM; CDK4/CycD3 10 nM, ATP Km 221 μM; CDK6/cycD3 15 nM, ATP Km 800 μM. After assay for 60 min, 180 min, 60 min respectively at 28° C., reactions were terminated with stop solution (50 mM EDTA, 0.015% Brij-35, 0.2% Coating Reagent #3 and 100 mM HEPES (pH 7.5)). Collect conversion on Caliper EZ Reader. IC50 values were calculated by fitting the dose-response curves with Xlfit excel add-in version 4.3.1. • Method 2: In vitro enzymatic activity of the CDK isoforms CDK2/CycA2, CDK4/CycD3 and CDK6/CycD3 were measured using Mobility Shift Assay that monitors phosphorylation ratio of FAM labelled peptide (Peptide 18 for CDK2/CycA2, Peptide 8 for CDK4/CycD3 and CDK6/CycD3). CDK2/CycA2, CDK4/CycD3 and CDK6/cycD3 were assayed under buffer conditions in the presence of 50 mM HEPES (pH 7.5), 10 mM MgCl2, 0.0015% Brij-35 and 2 mM dithiothreitol. Prepare compounds to 100× of the final desired highest inhibitor concentration by 100% DMSO and serial dilution in 3-fold for total of 10 concentrations, each concentration contains 1% DMSO. […] After assay for 30 min, 150 min, 150 min respectively at 28° C., reactions were terminated with stop solution (50 mM EDTA, 0.015% Brij-35, 0.2% Coating Reagent #3 and 100 mM HEPES (pH 7.5)). Collect conversion on Caliper EZ Reader. IC50 values were calculated by fitting the dose-response curves with GraphPad Prism V5.0.

[2] = biological target: recombinant, full-length HDAC-1 (Homo sapiens (Human), UniProt Q13547); assay: HDAC-1 assay (fluorogenic Ac-peptide-AMC)
Experimental: (§2) 2. HDAC-1 and HDAC-6 Assays: • Method 1: The inhibitory effect of compounds on HDAC-1 and HDAC-6 function was determined in vitro using an optimized homogenous assay performed in 384-well plate format. In this assay, recombinant, full-length HDAC-1 or HDAC-6 protein (BPS Biosciences) was incubated with Ac-peptide-AMC with concentration in Km plot. Reactions were performed in Tris-based assay buffer and followed for fluorogenic release of 7-amino-4-methylcoumarin from substrate upon deacetylase and trypsin enzymatic activity. Fluorescence measurements were obtained using a multilabel plate reader (Synergy MX with excitation at 355 nm and emission at 460 nm.). Data were analyzed on a plate-by-plate basis for the linear range of fluorescence over time. Fit the data in GraphPad Prism V5.0 software to obtain ICso values using equation (Y=Bottom+(Top−Bottom)/(1+10^((Log IC50−X)*Hill Slope), Y is % inhibition and X is compound concentration).
as §2, with “The testing results of the representative compounds are listed in Table 1 below. •” for “2. HDAC-1 and HDAC-6 Assays: •”, “Method 2:” for “Method 1:”, “HDAC-1 (Active Motif) and” for “HDAC-1 or”, “(Synergy” for “(Synergy MX”, “obtain IC50” for “obtain ICso”

[3] = biological target: CDK2/CycA2 (Homo sapiens (Human), UniProt P24941); assay: CDK2 kinase assay (Mobility Shift Assay); settings: 28° C.
Experimental: as §1

[4] = biological target: CDK4/CycD3 (Homo sapiens (Human), UniProt P11802); assay: CDK4 kinase assay (Mobility Shift Assay); settings: 28° C.
Experimental: as §1

[5] = biological target: recombinant, full-length HDAC-6 (Homo sapiens (Human), UniProt Q9UBN7); assay: HDAC-6 assay (fluorogenic Ac-peptide-AMC)
Experimental: as §2
as §2, with “The testing results of the representative compounds are listed in Table 1 below. •” for “2. HDAC-1 and HDAC-6 Assays: •”, “Method 2:” for “Method 1:”, “HDAC-1 (Active Motif) and” for “HDAC-1 or”, “(Synergy” for “(Synergy MX”, “obtain IC50” for “obtain ICso”

[6] = method 2: CDK6/cycD3 5 nM, ATP Km 550 μM, 150 min
[7] = method 2: HDAC-1 (Active Motif)
[8] = method 2: CDK2/CycA2 2.5 nM, ATP Km 17 μM, 30 min
[9] = method 2: CDK4/CycD3 10 nM, ATP Km 250 μM, 150 min
[10] = method 2: HDAC-6 protein (BPS Biosciences)
[11] = method 1: CDK6/cycD3 15 nM, ATP Km 800 μM, 60 min
[12] = method 1: HDAC-1 protein (BPS Biosciences)
[13] = method 1: CDK2/CycA2 12 nM, ATP Km 39 μM, 60 min
[14] = method 1: CDK4/CycD3 10 nM, ATP Km 221 μM, 180 min
[15] = method 1: HDAC-6 protein (BPS Biosciences)

Chain of recombinant, full-length HDAC-1 (Q13547 whole entry): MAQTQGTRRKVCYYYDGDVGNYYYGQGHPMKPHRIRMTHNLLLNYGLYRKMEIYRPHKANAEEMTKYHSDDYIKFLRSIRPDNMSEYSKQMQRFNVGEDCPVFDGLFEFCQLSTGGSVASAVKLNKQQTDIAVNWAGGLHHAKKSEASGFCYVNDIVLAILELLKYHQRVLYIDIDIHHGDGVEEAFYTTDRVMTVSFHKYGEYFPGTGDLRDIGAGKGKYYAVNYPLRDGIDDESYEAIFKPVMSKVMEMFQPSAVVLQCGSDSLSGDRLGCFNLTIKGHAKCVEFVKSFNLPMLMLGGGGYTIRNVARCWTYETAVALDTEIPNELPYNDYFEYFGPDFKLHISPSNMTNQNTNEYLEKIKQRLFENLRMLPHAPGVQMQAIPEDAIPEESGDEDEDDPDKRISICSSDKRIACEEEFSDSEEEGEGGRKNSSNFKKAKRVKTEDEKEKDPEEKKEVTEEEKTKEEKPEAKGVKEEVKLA
Chain of CDK4/CycD3 (P11802 whole entry, species assumed): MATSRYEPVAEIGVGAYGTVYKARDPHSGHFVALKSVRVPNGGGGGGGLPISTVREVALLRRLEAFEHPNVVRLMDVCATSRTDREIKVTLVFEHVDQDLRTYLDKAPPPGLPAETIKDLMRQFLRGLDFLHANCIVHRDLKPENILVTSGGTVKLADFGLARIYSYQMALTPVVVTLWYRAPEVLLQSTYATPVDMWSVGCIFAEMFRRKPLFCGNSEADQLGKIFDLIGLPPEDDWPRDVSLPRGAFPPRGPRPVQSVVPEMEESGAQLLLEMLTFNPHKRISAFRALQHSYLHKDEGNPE
Chain of CDK4/CycD3 (P30281 whole entry partner, species assumed): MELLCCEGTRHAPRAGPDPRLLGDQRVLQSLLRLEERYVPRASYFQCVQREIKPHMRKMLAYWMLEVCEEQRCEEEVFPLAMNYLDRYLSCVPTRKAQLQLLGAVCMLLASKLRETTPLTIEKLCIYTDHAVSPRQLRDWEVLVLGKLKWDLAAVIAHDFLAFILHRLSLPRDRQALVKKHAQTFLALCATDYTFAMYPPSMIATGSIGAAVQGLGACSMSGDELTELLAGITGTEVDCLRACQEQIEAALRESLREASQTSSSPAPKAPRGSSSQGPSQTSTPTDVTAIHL
Chain of recombinant, full-length HDAC-6 (Q9UBN7 whole entry): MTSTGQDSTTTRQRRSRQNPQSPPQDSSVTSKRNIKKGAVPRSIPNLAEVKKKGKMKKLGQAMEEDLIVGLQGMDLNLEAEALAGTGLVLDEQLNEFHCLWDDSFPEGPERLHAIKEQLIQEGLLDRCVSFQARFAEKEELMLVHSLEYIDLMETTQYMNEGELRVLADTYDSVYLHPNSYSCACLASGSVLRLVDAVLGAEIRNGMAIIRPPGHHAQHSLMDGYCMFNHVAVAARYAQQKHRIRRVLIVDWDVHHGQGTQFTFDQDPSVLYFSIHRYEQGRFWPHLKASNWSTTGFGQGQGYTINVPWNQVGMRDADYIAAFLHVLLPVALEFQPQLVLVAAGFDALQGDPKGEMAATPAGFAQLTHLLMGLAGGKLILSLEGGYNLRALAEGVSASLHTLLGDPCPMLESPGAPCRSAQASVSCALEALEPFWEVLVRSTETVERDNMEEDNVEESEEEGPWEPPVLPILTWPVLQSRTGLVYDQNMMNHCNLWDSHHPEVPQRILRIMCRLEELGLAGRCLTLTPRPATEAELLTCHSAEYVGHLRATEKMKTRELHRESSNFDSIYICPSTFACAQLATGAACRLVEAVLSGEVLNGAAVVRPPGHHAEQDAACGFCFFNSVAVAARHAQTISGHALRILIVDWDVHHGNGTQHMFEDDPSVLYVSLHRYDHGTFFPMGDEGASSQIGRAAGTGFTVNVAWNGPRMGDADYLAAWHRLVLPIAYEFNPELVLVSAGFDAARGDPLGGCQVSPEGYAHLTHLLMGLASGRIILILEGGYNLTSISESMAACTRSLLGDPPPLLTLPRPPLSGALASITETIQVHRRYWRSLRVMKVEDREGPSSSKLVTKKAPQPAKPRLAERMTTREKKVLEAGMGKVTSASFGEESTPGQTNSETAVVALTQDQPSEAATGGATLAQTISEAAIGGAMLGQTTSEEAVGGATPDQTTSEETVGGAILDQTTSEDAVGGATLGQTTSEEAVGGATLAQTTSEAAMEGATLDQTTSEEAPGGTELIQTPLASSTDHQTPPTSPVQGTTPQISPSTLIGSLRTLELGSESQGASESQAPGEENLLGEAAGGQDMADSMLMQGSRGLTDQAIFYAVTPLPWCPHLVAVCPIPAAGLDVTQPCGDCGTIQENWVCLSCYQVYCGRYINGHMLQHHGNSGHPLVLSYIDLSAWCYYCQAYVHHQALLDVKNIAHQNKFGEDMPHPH
Chain of CDK6/CycD3 (Q00534 whole entry, species assumed, canonical isoform): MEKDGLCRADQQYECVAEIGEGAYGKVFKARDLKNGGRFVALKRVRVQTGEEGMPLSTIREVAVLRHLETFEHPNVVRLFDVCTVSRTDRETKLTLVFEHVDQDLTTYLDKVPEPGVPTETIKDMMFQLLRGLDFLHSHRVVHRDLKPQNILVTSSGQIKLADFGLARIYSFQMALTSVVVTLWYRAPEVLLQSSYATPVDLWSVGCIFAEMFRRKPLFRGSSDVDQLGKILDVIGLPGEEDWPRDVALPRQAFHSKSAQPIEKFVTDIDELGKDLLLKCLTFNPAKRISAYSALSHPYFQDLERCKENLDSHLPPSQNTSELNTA
Chain of CDK6/CycD3 (P30281 whole entry partner, species assumed, canonical isoform): as the sequence (P30281 whole entry partner, species assumed) above

Structure (SMILES) | IC50 [1, 6] [nM] | IC50 [2, 7] [nM] | IC50 [3, 8] [nM] | IC50 [4, 9] [nM] | IC50 [5, 10] [nM] | IC50 [1, 11] [nM] | IC50 [2, 12] [nM] | IC50 [3, 13] [nM] | IC50 [4, 14] [nM] | IC50 [5, 15] [nM]
CC(=O)c1c(C)c2cnc(Nc3ccc(N(C)Cc4ccc(/C=C/C(=O)NO)cc4)cn3)nc2n(C2CCCC2)c1=O [Compound 2, (E)-3-(4-(((6-((6-acetyl-8-cyclopentyl-5-methyl-7-oxo-7,8-dihydropyrido[2,3-d]pyrimidin-2-yl)amino)pyridin-3-yl)(methyl)amino)methyl)phenyl)-N-hydroxyacrylamide] | – | – | – | – | – | 50 to 100 | 10 to 50 | > 2000 | 10 to 25 | 50 to 75
CC(=O)c1c(C)c2cnc(Nc3ccc(OCCN(C)c4ccc(C(=O)NO)cn4)cn3)nc2n(C2CCCC2)c1=O [Compound 5, 6-((2-((6-((6-acetyl-8-cyclopentyl-5-methyl-7-oxo-7,8-dihydropyrido[2,3-d]pyrimidin-2-yl)amino)pyridin-3-yl)oxy)ethyl)(methyl)amino)-N-hydroxynicotinamide] | 25 to 50 | ≤ 5 | > 2000 | ≤ 10 | 5 to 10 | – | – | – | – | –
CC(=O)c1c(C)c2cnc(Nc3ccc(N(C)CCN(C)c4ncc(C(=O)NO)cn4)cn3)nc2n(C2CCCC2)c1=O [Compound 1, 2-((2-((6-((6-acetyl-8-cyclopentyl-5-methyl-7-oxo-7,8-dihydropyrido[2,3-d]pyrimidin-2-yl)amino)pyridin-3-yl) (methyl)amino)ethyl) (methyl)amino)-N-hydroxypyrimidine-5-carboxamide] | – | – | – | – | – | 25 to 50 | 5 to 10 | > 10000 | ≤ 10 | 10 to 50
CC(=O)c1c(C)c2cnc(Nc3ccc(N4CCC(C(=O)NO)CC4)cn3)nc2n(C2CCCC2)c1=O [Compound 7, 1-(6-((6-acetyl-8-cyclopentyl-5-methyl-7-oxo-7,8-dihydropyrido[2,3-d]pyrimidin-2-yl)amino)pyridin-3-yl)-N-hydroxypiperidine-4-carboxamide] | 25 to 50 | – | > 2000 | ≤ 10 | – | – | – | – | – | –

Results, then the compound that gave them:

IC50 [1, 6] [nM] | IC50 [2, 7] [nM] | IC50 [3, 8] [nM] | IC50 [4, 9] [nM] | IC50 [5, 10] [nM] | IC50 [1, 11] [nM] | IC50 [2, 12] [nM] | IC50 [3, 13] [nM] | IC50 [4, 14] [nM] | IC50 [5, 15] [nM] | Structure (SMILES)
25 to 50 | ≤ 5 | > 10000 | 10 to 25 | 10 to 50 | – | – | – | – | – | CC(=O)c1c(C)c2cnc(Nc3ccc(OCCN(C)c4ncc(C(=O)NO)cn4)cn3)nc2n(C2CCCC2)c1=O [Compound 10, 2-((2-((6-((6-acetyl-8-cyclopentyl-5-methyl-7-oxo-7,8-dihydropyrido[2,3-d]pyrimidin-2-yl)amino)pyridin-3-yl)oxy)ethyl)(methyl)amino)-N-hydroxypyrimidine-5-carboxamide]
25 to 50 | – | > 5000 | ≤ 10 | – | – | – | – | – | – | CC(=O)c1c(C)c2cnc(Nc3ccc(N(C)CCN(C)c4ccc(C(=O)NO)nc4)cn3)nc2n(C2CCCC2)c1=O [Compound 4, 5-((2-((6-((6-acetyl-8-cyclopentyl-5-methyl-7-oxo-7,8-dihydropyrido[2,3-d]pyrimidin-2-yl)amino)pyridin-3-yl)(methyl)amino)ethyl)(methyl)amino)-N-hydroxypicolinamide]
25 to 50 | 50 to 75 | > 2000 | 10 to 25 | 75 to 100 | – | – | – | – | – | CC(=O)c1c(C)c2cnc(Nc3ccc(N(C)CCN(C)c4ccc(C(=O)NO)cn4)cn3)nc2n(C2CCCC2)c1=O [Compound 3, 6-((2-((6-((6-acetyl-8-cyclopentyl-5-methyl-7-oxo-7,8-dihydropyrido[2,3-d]pyrimidin-2-yl)amino)pyridin-3-yl)(methyl)amino)ethyl)(methyl)amino)-N-hydroxynicotinamide]
25 to 50 | 5 to 10 | > 5000 | 10 to 25 | 10 to 50 | – | – | – | – | – | CC(=O)c1c(C)c2cnc(Nc3ccc(N(C)CCCCCCC(=O)NO)cn3)nc2n(C2CCCC2)c1=O [Compound 9, 7-((6-((6-acetyl-8-cyclopentyl-5-methyl-7-oxo-7,8-dihydropyrido[2,3-d]pyrimidin-2-yl)amino)pyridin-3-yl)(methyl)amino)-N-hydroxyheptanamide]
25 to 50 | – | > 5000 | ≤ 10 | – | – | – | – | – | – | CC(=O)c1c(C)c2cnc(Nc3ccc(N(C)CCN(C)c4ccc(C(=O)NO)cc4)cn3)nc2n(C2CCCC2)c1=O [Compound 8, 4-((2-((6-((6-acetyl-8-cyclopentyl-5-methyl-7-oxo-7,8-dihydropyrido[2,3-d]pyrimidin-2-yl)amino)pyridin-3-yl) (methyl)amino)ethyl) (methyl)amino)-N-hydroxybenzamide]
